# Reference: paper PMC5653977 (EMBO Molecular Medicine, 2017)
# Where a name gives a salt, the structure may show the parent alone.
# Test system: NRG1-ERBB4 signaling
# Test: Nrg1-ERBB4-PIK3R1 split TEV co-culture compound screen of the NIH Clinical Collection
# Format: cell-based, human
# Settings: not given
row,Structure (SMILES),Z-SCORE
1,"CC(C)c1cccc(C(C)C)c1O [Propofol, reference compound]",-0.98

# Same assay, conditions: NIH Clinical Collection NCC-003 raw data; compounds ranked by Z-score; 'flagged' given instead of a Z-score
row,Structure (SMILES),Z-SCORE
1,OCCOCCN1CCN(C2=Nc3ccccc3Sc3ccccc32)CC1 [QUETIAPINE HEMIFUMARATE],-1.26
2,C[C@]12CCC(=O)C=C1CC[C@@H]1[C@@H]2CC[C@@]2(C)[C@H]1CC[C@]2(O)C(=O)CO [ReichsteinÂ’s substanceÂ S],-1.82
3,CC(C)CC(N(C)C)C1(c2ccc(Cl)cc2)CCC1.Cl (centres unmarked) [SIBUTRAMINE HCl],-1.35

# Same assay, conditions: compound screen of the NIH Clinical Collection, sheet raw data NCC-003; compounds ranked by Z-score
row,Structure (SMILES),Z-SCORE
1,CNC(=O)Oc1ccc2c(c1)[C@]1(C)CCN(C)[C@@H]1N2C [Physostigmine],0.16
2,CC(N/C(=N\C#N)Nc1ccncc1)C(C)(C)C (centres unmarked) [Pinacidil monohydrate],0.85
3,c1cnc(N2CCN(Cc3ccc4c(c3)OCO4)CC2)nc1 [Piribedil],1.22
4,CN1C(C(=O)Nc2ccccn2)=C(O)c2ccccc2S1(=O)=O [Piroxicam],0.27
5,CN1CCC(=C2c3ccccc3CCc3sccc32)CC1 [Pizotyline],-0.22
6,CCCN[C@H]1CCc2nc(N)sc2C1 [Pramipexole],-0.29
7,CCCCC[C@H](O)/C=C/[C@H]1[C@H](O)CC(=O)[C@@H]1CCCCCCC(=O)O [Prostaglandin E1],0.18
8,CN1CCc2cc(Cl)c(O)cc2[C@@H](c2ccccc2)C1.Cl [R(+)-SCH-23390 hydrochloride],0.87
9,COCCCOc1ccnc(C[S+]([O-])c2nc3ccccc3[nH]2)c1C (centres unmarked) [RABEPRAZOLE],-0.02
10,Cc1nc2ccc(CN(C)c3ccc(C(=O)N[C@@H](CCC(=O)O)C(=O)O)s3)cc2c(=O)[nH]1 [RALTITREXED],-0.52
11,CCOc1cc(CC(=O)N[C@@H](CC(C)C)c2ccccc2N2CCCCC2)ccc1C(=O)O [REPAGLINIDE],1.38
12,"CO[C@H]1/C=C/O[C@@]2(C)Oc3c(C)c(O)c4c(O)c(c(/C=N/N5CCN(C6CCCC6)CC5)c(O)c4c3C2=O)NC(=O)/C(C)=C\C=C\[C@H](C)[C@H](O)[C@@H](C)[C@@H](O)[C@@H](C)[C@H](OC(C)=O)[C@@H]1C [RIFAPENTINE, reference compound]",0.75
13,CO[C@H]1/C=C/O[C@@]2(C)Oc3c(C)c(O)c4c(O)c(c5c(nc6cc(C)ccn65)c4c3C2=O)NC(=O)/C(C)=C\C=C\[C@H](C)[C@H](O)[C@@H](C)[C@@H](O)[C@@H](C)[C@H](OC(C)=O)[C@@H]1C [RIFAXIMIN],0.05
14,Cc1nc2n(c(=O)c1CCN1CCC(c3noc4cc(F)ccc34)CC1)CCCC2 [RISPERIDONE],0
15,CC(C)c1nc(CN(C)C(=O)N[C@H](C(=O)N[C@@H](Cc2ccccc2)C[C@H](O)[C@H](Cc2ccccc2)NC(=O)OCc2cncs2)C(C)C)cs1 [RITONAVIR],-0.37
16,CN(C)CCc1c[nH]c2ccc(Cn3cncn3)cc12 [RIZATRIPTAN BENZOATE],-0.76
17,CS(=O)(=O)c1ccc(C2=C(c3ccccc3)C(=O)OC2)cc1 [ROFECOXIB],0.81
18,COc1ccc(C2CNC(=O)C2)cc1OC1CCCC1 (centres unmarked) [ROLIPRAM],1.06
19,CN(C)[C@@H]1C(O)=C(C(=O)NCN2CCCC2)C(=O)[C@@]2(O)C(O)=C3C(=O)c4c(O)cccc4[C@@](C)(O)[C@H]3C[C@@H]12 [ROLITETRACYCLINE],-0.5
20,CCCN1CCCC[C@H]1C(=O)Nc1c(C)cccc1C [ROPIVACAINE HCl],-0.05

row,Structure (SMILES),Z-SCORE
1,CN(CCOc1ccc(CC2SC(=O)NC2=O)cc1)c1ccccn1.Cl (centres unmarked) [ROSIGLITAZONE HCl],0.11
2,CN(CCOc1ccc(CC2SC(=O)NC2=O)cc1)c1ccccn1 (centres unmarked) [ROSIGLITAZONE MALEATE],-0.83
3,CC(=O)OCC(=O)NCCCOc1cccc(CN2CCCCC2)c1 [ROXATIDINE ACETATE HCl],-0.59
4,COc1ccc2[nH]cc(C3=CCNCC3)c2c1 [RU 24969],0.79
5,CN1CCN(c2c(F)cc3c(=O)c(C(=O)O)cn4c3c2SCC4)CC1.Cl [RUFLOXACIN HCl],1.1
6,C[C@@H]1O[C@@H](OC[C@H]2O[C@@H](Oc3c(-c4ccc(O)c(O)c4)oc4cc(O)cc(O)c4c3=O)[C@H](O)[C@@H](O)[C@@H]2O)[C@H](O)[C@H](O)[C@H]1O [RUTIN],0.13
7,CCN1CCC[C@H]1CNC(=O)c1c(O)c(Cl)cc(Cl)c1OC [Raclopride],-0.81
8,COc1ccccc1OCC(O)CN1CCN(CC(=O)Nc2c(C)cccc2C)CC1 (centres unmarked) [Ranolazine dihydrochloride],0.21
9,Oc1ccc(/C=C/c2cc(O)cc(O)c2)cc1 [Resveratrol],2.61
10,"CO[C@H]1/C=C/O[C@@]2(C)Oc3c(C)c(O)c4c(c3C2=O)C2=NC3(CCN(CC(C)C)CC3)NC2=C(NC(=O)/C(C)=C\C=C\[C@H](C)[C@H](O)[C@@H](C)[C@@H](O)[C@@H](C)[C@H](OC(C)=O)[C@@H]1C)C4=O [Rifabutin, reference compound]",0.07
11,Nc1nc2ccc(OC(F)(F)F)cc2s1 [Riluzole],-0.53
12,C[C@@H]1CN(CCCn2c3ccccc3c3ccccc32)C[C@H](C)N1 [Rimcazole],0.6
13,CC(C)(C)NCC(O)c1ccc(O)c(CO)c1.CC(C)(C)NCC(O)c1ccc(O)c(CO)c1.O=S(=O)(O)O (centres unmarked) [SALBUTAMOL SULFATE],-0.61
14,CC(C)(C)NC(=O)[C@@H]1C[C@@H]2CCCC[C@@H]2CN1C[C@@H](O)[C@H](Cc1ccccc1)NC(=O)[C@H](CC(N)=O)NC(=O)c1ccc2ccccc2n1 [SAQUINAVIR MESYLATE],-0.84
15,CN1CC[C@]2(c3cccc(O)c3)Cc3nc4ccccc4cc3C[C@H]2C1 [SB 205607],0.19
16,C=C(C)CN1CC[C@]23c4c5ccc(O)c4O[C@H]2c2[nH]c4ccccc4c2C[C@@]3(O)C1C5.Cl.O [SDM25N],-0.11
17,COc1cc(C[C@@H](CO)[C@H](CO)Cc2ccc(O)c(OC)c2)ccc1O [SECOISOLARICIRESINOL],-0.17
18,"Cl.NC1CCN(c2cccc(Cl)n2)CC1 [SR 57,227A]",-0.24
19,"Cc1cn([C@H]2C=C[C@@H](CO)O2)c(=O)[nH]c1=O [STAVUDINE, reference compound]",0.08

# Same assay, conditions: compounds at 10 μM, 24 h; PC12 split TEV assay cells co-cultured with Nrg1-expressing PC12 cells; analysed with cellHTS2
row,Structure (SMILES),Z-SCORE
1,"NNCCc1ccccc1 [Phenelzine, reference compound]",-0.21
2,"CC(CN1c2ccccc2Sc2ccccc21)N(C)C (centres unmarked) [Phenergan, reference compound]",0.41
3,"CC1=C(C/C=C(\C)CCC[C@H](C)CCC[C@H](C)CCCC(C)C)C(=O)c2ccccc2C1=O [Phylloquinone, reference compound]",-0.1
4,"COc1cc([C@@H]2c3cc4c(cc3[C@H](O)[C@H]3COC(=O)[C@H]23)OCO4)cc(OC)c1OC [Podofilox, reference compound]",flagged
5,"C[C@]12C=CC(=O)C=C1CC[C@@H]1[C@@H]2[C@@H](O)C[C@@]2(C)[C@H]1CC[C@]2(O)C(=O)CO [Prednisolone, reference compound]",-1.95
6,"C[C@]12C=CC(=O)C=C1CC[C@@H]1[C@@H]2C(=O)C[C@@]2(C)[C@H]1CC[C@]2(O)C(=O)CO [Prednisone, reference compound]",-0.15
7,"COc1cc(NC(C)CCCN)c2ncccc2c1 (centres unmarked) [Primaquine Diphosphate, reference compound]",-0.7
8,"CCC1(c2ccccc2)C(=O)NCNC1=O [Primidone, reference compound]",1.6
9,"c1ccc(CC2=NCCN2)cc1 [Priscoline, reference compound]",1.86
10,"COc1ccc(OC)c(C(O)CNC(=O)CN)c1 (centres unmarked) [Pro-Amatine, reference compound]",0.01
11,"CC(C)[N+](C)(CCOC(=O)C1c2ccccc2Oc2ccccc21)C(C)C [Pro-Banthine, reference compound]",-0.77
12,"CCCN(CCC)S(=O)(=O)c1ccc(C(=O)O)cc1 [Probenecid, reference compound]",1.6
13,"CCN(CC)CCNC(=O)c1ccc(N)cc1 [Pronestyl, reference compound]",0.04
14,"CCCOc1ccc(C(=O)OCCN(CC)CC)cc1N [Proparacaine hydrochloride, reference compound]",0.5
15,"CCCc1cc(=O)[nH]c(=S)[nH]1 [Propylthiouracil, reference compound]",0.58
16,"CNCCC(Oc1ccc(C(F)(F)F)cc1)c1ccccc1 (centres unmarked) [Prozac, reference compound]",-1.46
17,"NC(=O)c1cnccn1 [Pyrazinamide, reference compound]",1.05
18,"CCc1nc(N)nc(N)c1-c1ccc(Cl)cc1 [Pyrimethamine, reference compound]",0.29
19,"CCOC(=O)[C@H](CCc1ccccc1)N[C@@H](C)C(=O)N1Cc2ccccc2C[C@H]1C(=O)O [Quinapril hydrochloride, reference compound]",-1.66
20,"CO[C@H]1/C=C/O[C@@]2(C)Oc3c(C)c(O)c4c(O)c(c(/C=N/N5CCN(C)CC5)c(O)c4c3C2=O)NC(=O)/C(C)=C\C=C\[C@H](C)[C@H](O)[C@@H](C)[C@@H](O)[C@@H](C)[C@H](OC(C)=O)[C@@H]1C [RIFAMPICIN, reference compound]",-0.22
21,"CO[C@H]1/C=C/O[C@@]2(C)Oc3c(C)c(O)c4c(O)c(c(/C=N/N5CCN(C6CCCC6)CC5)c(O)c4c3C2=O)NC(=O)/C(C)=C\C=C\[C@H](C)[C@H](O)[C@@H](C)[C@@H](O)[C@@H](C)[C@H](OC(C)=O)[C@@H]1C [RIFAPENTINE, reference compound]",0.91
22,"CNC(=C[N+](=O)[O-])NCCSCc1ccc(CN(C)C)o1 [Ranitidine hydrochloride, reference compound]",-0.51
23,"CC1=C(/C=C/C(C)=C/C=C/C(C)=C/C(=O)O)C(C)(C)CCC1 [Retinoic acid, reference compound]",1.72
24,"NC(=O)c1ncn([C@@H]2O[C@H](CO)[C@@H](O)[C@H]2O)n1 [Ribavirin, reference compound]",0.53
25,"CO[C@H]1/C=C/O[C@@]2(C)Oc3c(C)c(O)c4c(c3C2=O)C2=NC3(CCN(CC(C)C)CC3)NC2=C(NC(=O)/C(C)=C\C=C\[C@H](C)[C@H](O)[C@@H](C)[C@@H](O)[C@@H](C)[C@H](OC(C)=O)[C@@H]1C)C4=O [Rifabutin, reference compound]",-1.04
26,"CCCNCC(O)COc1ccccc1C(=O)CCc1ccccc1 (centres unmarked) [Rythmol, reference compound]",0.2
27,"CN[C@@H]1[C@H](O)[C@H](NC)[C@H]2O[C@@]3(O)C(=O)C[C@@H](C)O[C@H]3O[C@@H]2[C@H]1O.Cl.Cl.O.O.O.O.O [SPECTINOMYCIN DIHYDROCHLORIDE PENTAHYDRATE, reference compound]",0.04
28,"Cc1cn([C@H]2C=C[C@@H](CO)O2)c(=O)[nH]c1=O [STAVUDINE, reference compound]",0.2
